For test [1], the system named is primary microglia cells activated by lipopolysaccharide. In words: NO generation (Griess reagent) in primary microglia cells activated by lipopolysaccharide. The format is cell-based, Sprague-Dawley rat. The following applies: 100 ng/ml lipopolysaccharide. Here is the method:
(§1) To investigate the effect of acetylshikonin on the activation of microglia cells which are macrophages in brain, NO generation was measured in BV-2 cells and primary microglia cells which are neuroglia cells, activated by lipopolysaccharide according to the previously reported methods with slight modifications (Min Kim J, et al., Neuroreport, 14(15), pp1941-1944, 2003).
(§2) BV-2 cells (Lab. of Dr. Eui-Ju Choi, Korea University) were maintained in DMEM (Dulbeccols Modified Eagle Medium, Gibco-BRL, England) supplemented with 10% FBS (Fetal Bovine Serum, Gibco-BRL, England) and 1% penicillin-streptomycin (Gibco-BRL, England). To obtain the primary microglia cells, brain cells were separated from the brain extracted from Sprague-Dawley rat (Taconic, Japan) at less than 1 week from the birth and the cells were cultured for approximately 2 weeks in DMEM having the same composition with the one used for BV-2 cell culture in a 75T flask and then the primary microglia cells were recovered. BV-2 cells and the primary microglia cells were distributed into a 96 well plate at the concentration of […] and then cultured in a 37° C., 5% CO2 incubator for overnight. […] OD570 was measured by Elyzerleader (Moleulat Device, USA) and the concentration was calculated by considering the level of sodium nitrite as standard.

Test [2] has as its system BV-2 cells activated by lipopolysaccharide. In words: NO generation (Griess reagent) in BV-2 cells activated by lipopolysaccharide. The format is cell-based. The conditions noted are these: 100 ng/ml lipopolysaccharide. Here is the method: as §1, §2
Test [3] has as its system rats with local brain ischemia induced by middle cerebral arterial occlusion. In words: Defensive effect in rats with local brain ischemia induced by middle cerebral arterial occlusion (TTC staining, infarct volume). The test is classed as in vivo, Sprague-dawley male rats. The following applies: right after and 120 minutes after brain ischemia was induced, MCAo 120 min, 22 hours reperfusion. As for the experimental part: Sprague-dawley male rats at 8 weeks having the weight of 280 g-300 g were purchased from Samtako, Inc., Korea. The rats were supplied with feed and water enough and adapted to the experimental environment for one week. Middle cerebral arterial occlusion was performed by intraluminal suture method based on the method of Zea longa, et al (Zea longa, et al., Stroke, 20, pp 84-91, 1989). Once middle cerebral artery of a rat is closed, blood flow is interrupted around middle cerebral arterial region so that oxygen and other energy source are exhausted, leading to cell death. In particular, tissue necrosis is observed in the center of the middle cerebral arterial region, striatum and temporal lobe, which is so called 'ischemic core'. Although not middle cerebral arterial region, the neighboring cells begin to be auto-destroyed, which is called '[…] penumbra'. 3 hours after blocking middle cerebral artery, necrosis starts and from 6 hours after blocking, cerebral ischemia is developed. The progress of cerebral ischemia continues for 24 hours after middle cerebral artery was closed for 120 minutes, and on the 3rd day, it reaches the highest degree. To measure the level of cerebral ischemia, it is necessary to measure correlated infarct volume (mm^3). […] Blood sugar and blood gas were measured from the blood sample. […]

The subject of a further test is iNOS. In words: Western blot of iNOS expression in primary microglia cells activated by lipopolysaccharide. The test is classed as cell-based, Sprague-Dawley rat. The conditions noted are these: 100 ng/ml lipopolysaccharide co-treated with 0.1, 1 uM, 24 hours. Here is the method:
(§3) Western blot analysis was performed to investigate the inhibition of iNOS expression by acetylshikonin.
(§4) The primary microglia cells cultured in DMEM supplemented with 10% FBS and 1% penicillin-streptomycin were distributed in a 6 well plate at the concentration of 4×10^6 cells/well, followed by culture for 24 hours. 100 ng/ml of lipopolysaccharide and 0.1, 1 uM of acetylshikonin were co-treated thereto, followed by activation of the cells for 24 hours. The control group was not treated with lipopolysaccaride. After 24 hours of activation, the culture medium was discarded and the cells were washed with cold PBS, to which trypsin was treated. 1 ml of PBS containing the cells was obtained, followed by centrifugation at 12,000 rpm for 2 minutes to separate the cells. The cells were loaded in 50 μl of triple lysis buffer to decompose all the cell membranes and then centrifugation was performed at 12,000 rpm for 30 minutes to obtain supernatant, a protein layer. The obtained supernatant was diluted and protein was quantified by Bradford method. After quantification, an equal amount of protein proceeded onto 8% polyacrylamide gel electrophoresis. The separated proteins from the electrophoresis were transferred onto Hybond ECL nitrocellulose membrane, leading to the reaction with primary and secondary antibodies of iNOS and IL-1beta. ECL examination was performed.

Another test deals with IL-1beta mRNA. In words: RT-PCR of IL-1beta mRNA expression in primary microglia cells activated by lipopolysaccharide. The format is cell-based, Sprague-Dawley rat. The conditions noted are these: 100 ng/ml lipopolysaccharide co-treated with 0.1, 1 uM, 24 hours.
In another test the test system is iNOS mRNA. In words: RT-PCR of iNOS mRNA expression in primary microglia cells activated by lipopolysaccharide. The test is classed as cell-based, Sprague-Dawley rat. The following applies: 100 ng/ml lipopolysaccharide co-treated with 0.1, 1 uM, 24 hours. As for the experimental part: To investigate the inhibition of iNOS mRNA expression by acetylshikonin, […] was performed.
The primary microglia cells cultured in DMEM supplemented with 10% FBS and 1% penicillin-streptomycin were distributed in a 6 well plate at the concentration of 4×10^6 cells/well, followed by culture for 24 hours. 100 ng/ml of lipopolysaccharide and 0.1, 1 uM of acetylshikonin were co-treated thereto, followed by activation of the cells for 24 hours. The control group was not treated with lipopolysaccaride. After 24 hours of activation, the culture medium was discarded and the cells were washed with cold PBS ([…]), to which trypsin was treated. 1 ml of PBS containing the cells was obtained, followed by centrifugation at 12,000 rpm for 2 minutes to separate the cells. The cells were lysed in RNA separation solution (easyblue) to extract RNA from the cells, followed by centrifugation at 12,000 rpm for 15 minutes. After treating chloroform, centrifugation was performed again at 13,000 rpm for 25 minutes and the supernatant was obtained and washed with isopropanol to extract RNA. cDNA was synthesized using 5 ug of the RNA and 5 μmol of primer at 45° C., followed by PCR. […]

For a further test, the system named is IL-1beta. In words: Western blot of IL-1beta expression in primary microglia cells activated by lipopolysaccharide. The test is classed as cell-based, Sprague-Dawley rat. The following applies: 100 ng/ml lipopolysaccharide co-treated with 0.1, 1 uM, 24 hours. As for the experimental part:
as §3, §4

The subject of the next test is TNF-alpha mRNA. In words: RT-PCR of TNF-alpha mRNA expression in primary microglia cells activated by lipopolysaccharide. The following applies: 100 ng/ml lipopolysaccharide co-treated with 0.1, 1 uM, 24 hours. The format is cell-based, Sprague-Dawley rat.
Setting [4] is: 24 hours, 0.5 mM positive control.
The mark [5] stands for this setting: 24 hours, 0.1, 0.5 and 1 uM tested, inhibition stated at 1 uM.

Entries after “also recorded” stand apart in the source; their conditions may differ.

As to `CNC(=N)NCCC[C@H](N)C(=O)O` [positive control, N super(G)-monomethyl-L-arginine, reference compound], the NO generation result in test [1] (setting [4]) and in test [2] (setting [4]) was “inhibition of NO generation” throughout.

For the compound `CC(=O)O[C@H](CC=C(C)C)C1=CC(=O)c2c(O)ccc(O)c2C1=O` [acetylshikonin], the “protective effect on brain tissue damage, compared with the control” value is approximately 46.88% in test [3] (1 mg/kg orally) and 68.75% in test [3] (3 mg/kg orally). The NO generation result in test [1] (setting [5]) and in test [2] (setting [5]) was “inhibited the generation of nitric oxide dose dependently; also recorded: inhibition of NO generation” throughout. Besides, in the test with iNOS, the “expression of iNOS (protein)” value is listed as “inhibited”. Moreover, in the test with IL-1beta mRNA, the “expression of mRNA of IL-1beta” value is on record as “inhibited”. In addition, in the test on iNOS mRNA, the “expression of mRNA of iNOS” value is listed as “inhibited”. Further, in the test on IL-1beta, the “expression of IL-1beta (protein)” value is reported as “inhibited”. The “expression of mRNA of TNF-alpha” value in the test with TNF-alpha mRNA is on record as “inhibited”.
